Results on two compounds are retold here after ChEMBL document CHEMBL5316344, “Homologation of the Alkyl Side Chain of Antimitotic Phenyl 4-(2-Oxo-3-alkylimidazolidin-1-yl)benzenesulfonate Prodrugs Selectively Targeting CYP1A1-Expressing Breast Cancers Improves Their Stability in Rodent Liver Microsomes” (J Med Chem, 2023).

A short description of data set [1]: Stability in rat liver microsomes assessed as half life incubated for 60 mins by HPLC analysis. In kind it is ADME, Microsome. (Liver microsomes are a subcellular fraction often used to study metabolism.)
A short description of data set [2]: Stability in rat liver microsomes assessed as intrinsic clearance incubated for 60 mins by HPLC analysis. The following applies: read-out: CLH. Type of data set: ADME, Microsome.
Data set [3] concerns the target Tubulin (Homo sapiens) (UniProt P68371+Q9H4B7+P0DPH7+P68366+Q13509+Q71U36+P04350+Q3ZCM7+P07437+P68363+Q9BQE3+Q6PEY2+Q13885+Q9BVA1+Q9BUF5). As to the kind of experiment: Disruption of microtubules in human MCF7 cells expressing CYP1A1 assessed as cytoskeleton disruption at 65 nM measured after 48 hrs by DAPI staining based fluorescence microscopic analysis. Type of data set: cell-based.

In data set [4] the test system is HT-1080. As to the kind of experiment: Antiproliferative activity against human HT-1080 cells assessed as cell growth inhibition incubated for 48 hrs by sulforhodamine B assay. In kind it is functional, cell-based. The following applies: HT-1080, 48 h.
Data set [5] is described as follows: Stability in mouse liver microsomes assessed as intrinsic clearance incubated for 60 mins by HPLC analysis. In kind it is ADME, Microsome. The following applies: read-out: CLH.
Data set [6] deals with HT-1080. Description: Antiproliferative activity against human HT-1080 cells expressing CYP1A1 assessed as cell growth inhibition incubated for 48 hrs by sulforhodamine B assay. Type of data set: functional, cell-based. The following applies: HT-1080, 48 h. (The SRB assay estimates cell density from bound dye.)
For data set [7], the system named is MCF7. As to the kind of experiment: Induction of cell cycle arrest in human MCF7 cells expressing CYP1A1 assessed as accumulation of cells at G0/G1 phase at 145 nM incubated for 48 hrs by DAPI staining based flow cytometric analysis (reference value: 74+/-2 %). In kind it is functional. Background: Flow cytometry measures light scatter and fluorescence of single cells or particles in a stream.

Data set [8] concerns the target T1, Cytochrome P450 1A1 (Homo sapiens, UniProt P04798).
T1 sequence (P04798 whole entry): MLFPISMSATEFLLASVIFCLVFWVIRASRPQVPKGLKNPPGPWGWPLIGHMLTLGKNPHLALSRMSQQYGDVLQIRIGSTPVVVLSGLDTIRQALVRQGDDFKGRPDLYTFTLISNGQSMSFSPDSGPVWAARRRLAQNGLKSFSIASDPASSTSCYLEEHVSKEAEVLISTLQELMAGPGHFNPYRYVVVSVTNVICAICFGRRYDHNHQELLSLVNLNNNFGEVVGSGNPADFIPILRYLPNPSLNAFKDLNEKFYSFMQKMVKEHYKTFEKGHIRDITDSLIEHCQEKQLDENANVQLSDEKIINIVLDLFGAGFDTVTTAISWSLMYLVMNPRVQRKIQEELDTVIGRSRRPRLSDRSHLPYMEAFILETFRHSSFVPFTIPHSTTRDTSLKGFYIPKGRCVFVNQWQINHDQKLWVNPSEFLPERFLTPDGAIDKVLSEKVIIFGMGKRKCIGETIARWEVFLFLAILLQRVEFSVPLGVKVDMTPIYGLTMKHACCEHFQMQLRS
As to the kind of experiment: Binding affinity to human CYP1A1 assessed as inhibition of conversion of 7-ethoicyresorufin into fluorescent resorufin by measuring inhibition constant preincubated for 5 mins followed by […] addition measured every minute for 15 mins by EROD assay. Type of data set: ADME.

In data set [9] the test system is M21. Description: Antiproliferative activity against human M21 cells assessed as cell growth inhibition incubated for 48 hrs by sulforhodamine B assay. In kind it is functional, cell-based. The following applies: M21, 48 h.
A short description of data set [10]: Stability in human liver microsomes assessed as half life incubated for 60 mins by HPLC analysis. Type of data set: ADME, Microsome.
Data set [11] can be described thus: Selectivity ratio, ratio of IC50 for antiproliferative activity against human HT-1080 cells to IC50 for antiproliferative activity against human HT-1080 cells expressing CYP1A1. Type of data set: functional.
Data set [12] can be described thus: Selectivity ratio, ratio of IC50 for antiproliferative activity against human HT-1080 cells transfected with empty vector to IC50 for antiproliferative activity against human HT-1080 cells expressing CYP1A1. Type of data set: functional.
Data set [13] concerns HT-29. Description: Antiproliferative activity against human HT-29 cells assessed as cell growth inhibition incubated for 48 hrs by sulforhodamine B assay. In kind it is functional, cell-based. The following applies: HT-29, 48 h.
A short description of data set [14]: Stability in human liver microsomes assessed as intrinsic clearance incubated for 60 mins by HPLC analysis. Type of data set: ADME, Microsome. The following applies: read-out: CLH.
A short description of data set [15]: Selectivity ratio, ratio of IC50 for antiproliferative activity against human HT-29 cells to IC50 for antiproliferative activity against human MCF7 cells expressing CYP1A1. In kind it is functional.
Data set [16] has as its system MCF7. Description: Induction of cell cycle arrest in human MCF7 cells expressing CYP1A1 assessed as accumulation of cells at S phase at 145 nM incubated for 48 hrs by DAPI staining based flow cytometric analysis (reference value: 11+/-1 %). Type of data set: functional.
The nature of data set [17]: Selectivity ratio, ratio of IC50 for antiproliferative activity against human M21 cells to IC50 for antiproliferative activity against human MCF7 cells expressing CYP1A1. Type of data set: functional.
For data set [18], the system named is MCF7. Description: Induction of cell cycle arrest in human MCF7 cells expressing CYP1A1 assessed as accumulation of cells at G2/M phase at 145 nM incubated for 48 hrs by DAPI staining based flow cytometric analysis (reference value: 16+/-2 %). In kind it is functional.
Data set [19] can be described thus: Stability in mouse liver microsomes assessed as half life incubated for 60 mins by HPLC analysis. Type of data set: ADME, Microsome.
The test system of data set [20] is HT-1080. As to the kind of experiment: Antiproliferative activity against human HT-1080 cells transfected with empty vector assessed as cell growth inhibition incubated for 48 hrs by sulforhodamine B assay. The following applies: HT-1080, 48 h. In kind it is functional, cell-based.
In data set [21] the test system is MCF7. Description: Antiproliferative activity against human MCF7 cells expressing CYP1A1 assessed as cell growth inhibition incubated for 48 hrs by sulforhodamine B assay. Type of data set: functional, cell-based. The following applies: MCF7, 48 h.
Data set [22] deals with HT-1080. Description: Antitumor activity against human HT-1080 cells transfected with empty vector xenografted in chick embryo assessed as reduction in tumor wet weight at 1 ug, iv incubated for 17 days by CAM assay. In kind it is functional. Details: scale not given: the % may be the effect or the level left. The following applies: dose 1 µg, time 17 day.
The nature of data set [23]: Toxicity in chick embryo xenografted with human […] cells assessed as mortality at 1 ug, iv incubated for 17 days. The following applies: chicken, in vivo, 408 h, dose 1 µg, time 17 day. Type of data set: organism-based, Gallus gallus.
Data set [24] concerns MCF7. As to the kind of experiment: Induction of cell cycle arrest in human MCF7 cells expressing CYP1A1 assessed as accumulation of cells at G0/G1 phase at 30 nM incubated for 48 hrs by DAPI staining based flow cytometric analysis (reference value: 74+/-2 %). Type of data set: functional.
In data set [25] the test system is HT-1080. Description: Antitumor activity against human HT-1080 cells xenografted in chick embryo assessed as reduction in tumor wet weight at 1 ug, iv incubated for 17 days by CAM assay. Type of data set: functional. On the set-up: scale not given: the % may be the effect or the level left. The following applies: dose 1 µg, time 17 day.
Data set [26] is described as follows: Toxicity in chick embryo xenografted with human […] cells transfected with empty vector assessed as mortality at 1 ug, iv incubated for 17 days. In kind it is organism-based, Gallus gallus. The following applies: chicken, in vivo, 408 h, dose 1 µg, time 17 day.
In data set [27] the test system is MCF7. As to the kind of experiment: Induction of cell cycle arrest in human MCF7 cells expressing CYP1A1 assessed as accumulation of cells at G2/M phase at 30 nM incubated for 48 hrs by DAPI staining based flow cytometric analysis (reference value: 16+/-2 %). In kind it is functional.
Data set [28] has as its system HT-1080. Description: Antitumor activity against human HT-1080 cells expressing CYP1A1 xenografted in chick embryo assessed as reduction in tumor wet weight at 1 ug, iv incubated for 17 days by CAM assay. Details: scale not given: the % may be the effect or the level left. In kind it is functional. The following applies: dose 1 µg, time 17 day.
Data set [29] in a line: Toxicity in chick embryo xenografted with human […] cells expressing CYP1A1 assessed as mortality at 1 ug, iv incubated for 17 days. In kind it is organism-based, Gallus gallus. The following applies: chicken, in vivo, 408 h, dose 1 µg, time 17 day.
Data set [30] concerns MCF7. Description: Induction of cell cycle arrest in human MCF7 cells expressing CYP1A1 assessed as accumulation of cells at S phase at 30 nM incubated for 48 hrs by DAPI staining based flow cytometric analysis (reference value: 11+/-1 %). In kind it is functional.

Active and inactive are the calls of the source.

For `CCCCCN1CCN(c2ccc(S(=O)(=O)Oc3cc(Cl)cc(Cl)c3)cc2)C1=O`, the half-life (as a rule, the time needed for the level to fall by half in the phase considered) in data set [1] was 160 min; in data set [10], 120 min; in data set [19], 111 min. The values for the microsomal CLint in data set [2], in [5] and in data set [14] were 9 µL/min/mg, 12.5 µL/min/mg and 12 µL/min/mg, respectively. For the same compound, the result in [3] was Active. Moreover, the half-inhibitory concentration (IC50) – broadly, the point on the concentration scale where inhibition reaches its midpoint – in [4] is 4570 nM; in data set [6], 30 nM; in data set [9], over 5000 nM; in data set [13], over 5 µM; in [20] it was over 5000 nM; in [21], 50 nM. For the same compound, the Activity in data set [7] was 49%; in data set [16], 17%; in data set [18] it was 34%. In data set [8], the inhibition constant (Ki) (commonly the equilibrium dissociation constant of an inhibitor or competing ligand from its target) stood at 1200 nM. For the same compound, the “Ratio IC50” value in [11] is reported as 152; in data set [12] it was over 167; in [15] it was over 100; in data set [17], over 100.
As to `CCCCN1CCN(c2ccc(S(=O)(=O)Oc3cc(OC)c(OC)c(OC)c3)cc2)C1=O`, the Activity in [22] is recorded as 108%; in data set [23], “Non-Toxic”; in data set [24] it was 38%; in data set [25], 85%; in [26], “Non-Toxic”; in data set [27], 51%. The Activity is on record as 51% in data set [28], “Non-Toxic” in [29] and 11% in data set [30]. Also, the half-life in data set [1] turned out to be 18.1 min; in [10], 92 min; in data set [19], 18 min. For the same compound, the results for the microsomal CLint in data set [2], in data set [5] and in [14] were 77 µL/min/mg, 77 µL/min/mg and 15 µL/min/mg, respectively. In addition, the half-inhibitory concentration (IC50) was 1200 nM in [4]; 6 nM in data set [6]; 2400 nM in data set [9]; over 5 µM in data set [13]; 820 nM in data set [20]; 29 nM in data set [21]. For the same compound, in [8], the inhibition constant (Ki) is 140 nM. For the same compound, the “Ratio IC50” value is 200 in [11], 137 in data set [12], over 172 in data set [15] and 83 in data set [17].
